Values quoted from earlier work as cited in patent US11304898B2, “Method of treating carcinoma” (SUN PHARMA ADVANCED RESEARCH COMPANY LTD, priority 2015, dated 2022).

What was measured:
bile tract cancer [1] = conditions: Phase II studies, bile tract cancer patients
bile tract cancer [2] = conditions: EORTC study

Compound	achieved response rate (bile tract cancer [1])	objective response rate (bile tract cancer [2]) [%]
O=c1[nH]cc(F)c(=O)[nH]1 [Example 5-FU, 5-Fluorouracil]	less than 20%	
CO[C@@]12[C@H](COC(N)=O)C3=C(C(=O)C(C)=C(N)C3=O)N1C[C@@H]1N[C@@H]12 [Mit-C, mitomycin-C]		10
